These results are taken from US7939537B2, “HIV integrase inhibitors” (Istituto Di Ricerche Di Biologia Molecolare P. Angeletti …, priority 2006, dated 2011).

The subject of the assay is HIV. In words: Assay for inhibition of HIV replication (spread assay; acute HIV infection of T-lymphoid cells). It is filed as cell-based. The conditions noted are these: Human immunodeficiency virus 1, tested up to 1 micromolar. On the procedure:
Assay for Inhibition of HIV Replication
Assays for the inhibition of acute HIV infection of T-lymphoid cells were conducted in accordance with Vacca, J. P. et al., Proc. Natl. Acad. Sci. USA 1994, 91: 4096. […] The compounds of Examples 6, 8, 9, 14, 15, 21-23 and 29-35 were also tested in the spread assay up to 1 micromolar, but specific IC95 values were not obtained; i.e., the IC95 values for these compounds are greater than 1 micromolar.

`O=C(NCc1cccn2c(=O)c(O)c(C(=O)NCc3ccc(F)cc3)nc12)c1ccccc1` [Example 34, 9-[(benzoylamino)methyl]-N-(4-fluorobenzyl)-3-hydroxy-4-oxo-4H-pyrido[1,2-a]pyrimidine-2-carboxamide] showed an IC95 of over 1 µM. `O=C(NCc1ccc(F)cc1)c1nc2ccc(Br)cn2c(=O)c1O` [Example 35, 7-bromo-N-(4-fluorobenzy1)-3-hydroxy-4-oxo-4H-pyrido[1,2-a]pyrimidine-2-carboxamide]: the 95% effect concentration (IC95) was over 1 µM.
